Assays:
HL-60 cells = assay: in vitro; format: cell-based, human
Outline: (§1)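 HL-60 cells differentiated ~72 h with 10 nM PMA, then exposed ~24 h to compound at 300 μmol/L final in RPMI with 2% FBS. LDH release in supernatant gave cytotoxicity % scaled between untreated (0%) and lysis-buffer (100%) groups; triplicate.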

[1] = Study for confirmation of conversion to brexpiprazole in a buffer (stability of the evaluation compounds); format: physicochemical; conditions: in buffer, average of duplicate; for Concentration of brexpiprazole formed: 60-minute reaction sample; for Concentration of evaluation compound decreased: decrease in 60-minute vs 0-minute reaction sample
Outline: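 Compounds (final 1 μmol/L, from 100 μmol/L working solutions) incubated in buffer at 37° C. for 0 or 60 min, in duplicate, after 3 min pre-incubation of the reaction solution. Reactions stopped with acetonitrile/isopropanol (4:1) containing internal standards; compound and formed brexpiprazole quantified against 0.01–1 μmol/L calibration samples.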

[2] = Dog irritation study (subcutaneous injection site, histopathological examination); format: in vivo; conditions: stated as reason for choice as positive control
Description: Male beagle dogs were purchased at the age of 5-7 months from Kitayama Labes Co., Ltd. and used in the experiment after acclimatization. The breeding environment was as follows: feeding: 250 g of solid feed once a day, water intake: unlimited, number of animals per cage: 1, temperature: 21-25° C., humidity: 50-70%, lighting time: 7:00-19:00. The test formulation was subcutaneously administered to dogs anesthetized with 25 mg/kg thiopental sodium using a plastic syringe at a dose of 10 mg/kg per formulation, changing the position on the back. […] The collected tissues were fixed in 10% neutral buffered formalin, and hematoxylin and eosin-stained specimens were prepared for histopathological examination.

in vitro = format: cell-based, human; conditions: human, differentiated hl-60 cells, 300 μmol/L, about 24 hours, PMA-differentiated HL-60 cells, LDH; no-treatment 0%, cell lysis buffer 100%; read-out: cytotoxicity (%) Evaluation compound results
Outline: as §1

[3] = human, differentiated hl-60 cells, 24 h, 300 µM

Concentration of brexpiprazole formed [1]	Concentration of evaluation compound decreased [1]	Compound	cytotoxicity (%) Evaluation compound results (HL-60 cells; [3])	cytotoxicity compared with the controls (in words) (HL-60 cells; 300 μmol/L, about 24 hours, HL-60 cells)	cytotoxicity (%) Evaluation compound results (HL-60 cells; 300 μmol/L, about 24 hours, PMA-differentiated HL-60 cells, LDH, no-treatment 0%, cell lysis buffer 100%)	irritation when subcutaneously administered to dogs [2]	cytotoxicity at 24 h, 300 µM (in vitro)
0 nM	-60 nM	COCCOCCOP(=O)([O-])OC[N+]1(CCCCOc2ccc3ccc(=O)[nH]c3c2)CCN(c2cccc3sccc23)CC1 [EX 7, (4-(benzo[b]thiophen-4-yl)-1-(4-((2-oxo-1,2-dihydroquinolin-7-yl)oxy)butyl)piperazin-1-ium-1-yl)methyl (2-(2-methoxyethoxy)ethyl)phosphate]	−4%				
		O=C(OC[N+]1(CCCCOc2ccc3ccc(=O)[nH]c3c2)CCN(c2cccc3sccc23)CC1)N1CCCCC1 [Reference Example 4 compound, reference compound]		stronger cytotoxicity than that of the Reference Example 3 compound			
		(4-(benzo[b]thiophen-4-yl)-1-(4-(2-oxo-1,2-dihydroquinolin-7-yl)oxy)butyl)piperazin-1-ium-1-yl)methyl (5-bromopentyl) phosphate [EX 114]	14%				
		CCCCCC(=O)OCn1c(=O)ccc2ccc(OCCCCN3CCN(c4cccc5sccc45)CC3)cc21 [Reference Example 3 compound, (7-(4-(4-(benzo[b]thiophen-4-yl)piperazin-1-yl)butoxy)-2-oxoquinolin-1(2H)-yl)methyl hexanoate]				showed irritation	
0 nM	0 nM	(4-(benzo[b]thiophen-4-yl)-1-((4-((2-oxo-1,2-dihydroquinolin-7-yl)oxy)butyl)piperazin-1-ium-1-yl)methyl hydrogen phosphate [EX 1]	−7%				
0 nM	70 nM	CCCCOCCOCCOC(=O)OCOP(=O)([O-])OC[N+]1(CCCCOc2ccc3ccc(=O)[nH]c3c2)CCN(c2cccc3sccc23)CC1 [EX 135, (4-(benzo[b]thiophen-4-yl)-1-(4-((2-oxo-1.2-dihydroquinolin-7-yl)oxy)butyl)piperazin-1-ium-1-yl)methyl (3-oxo-2,4,7,10-tetraoxatetradecyl) phosphate]					-4%
0 nM	140 nM	O=c1ccc2ccc(OCCCC[N+]3(COP(=O)([O-])OCCN4CCC(F)(F)CC4)CCN(c4cccc5sccc45)CC3)cc2[nH]1 [EX 119, (4-(benzo[b]thiophen-4-yl)-1-(4-((2-oxo-1,2-dihydroquinolin-7-yl)oxy)butyl)piperazin-1-ium-1-yl)methyl (2-(4,4-difluoropiperidin-1-yl)ethyl) phosphate]					2%
0 nM	100 nM	CC(C)(CC(=O)O)CC(=O)OCOP(=O)([O-])OC[N+]1(CCCCOc2ccc3ccc(=O)[nH]c3c2)CCN(c2cccc3sccc23)CC1 [EX 71]					-9%
0 nM	0 nM	O=c1ccc2ccc(OCCCC[N+]3(COP(=O)([O-])O)CCN(c4cccc5sccc45)CC3)cc2[nH]1 [EX 2, (4-(benzo[b]thiophen-4-yl)-1-((4-((2-oxo-1,2-dihydroquinolin-7-yl)oxy)butyl)piperazin-1-ium-1-yl)methyl hydrogen phosphate]					-7%
0 nM	70 nM	CC1(C)OCC(COP(=O)([O-])OC[N+]2(CCCCOc3ccc4ccc(=O)[nH]c4c3)CCN(c3cccc4sccc34)CC2)CO1 [EX 55, (4-(benzo[b]thiophen-4-yl)-1-(4-((2-oxo-1,2-dihydroquinolin-7-yl)oxy)butyl)piperazin-1-ium-1-yl)methyl ((2,2-dimethyl-1,3-dioxan-5-yl)methyl) phosphate]					-7%
0 nM	70 nM	CCOC(=O)C1CCN(CCOP(=O)([O-])OC[N+]2(CCCCOc3ccc4ccc(=O)[nH]c4c3)CCN(c3cccc4sccc34)CC2)CC1 [EX 147, (4-(benzo[b]thiophen-4-yl)-1-(4-((2-oxo-1,2-dihydroquinolin-7-yl)oxy)butyl)piperazin-1-ium-1-yl)methyl (2-(4-(ethoxycarbonyl)piperidin-1-yl)ethyl) phosphate]					-6%
0 nM	-40 nM	O=c1ccc2ccc(OCCCC[N+]3(COP(=O)([O-])OCCOCC4CC4)CCN(c4cccc5sccc45)CC3)cc2[nH]1 [EX 52, (4-(benzo[b]thiophen-4-yl)-1-(4-((2-oxo-1,2-dihydroquinolin-7-yl)oxy)butyl)piperazin-1-ium-1-yl)methyl (2-(cyclopropylmethoxy)ethyl) phosphate]					-1%
0 nM	160 nM	O=c1ccc2ccc(OCCCC[N+]3(COP(=O)([O-])OCCCCCCl)CCN(c4cccc5sccc45)CC3)cc2[nH]1 [EX 113, (4-(benzo[b]thiophen-4-yl)-1-(4-((2-oxo-1,2-dihydroquinolin-7-yl)oxy)butyl)piperazin-1-ium-1-yl)methyl (5-chloropentyl) phosphate]					10%
0 nM	-20 nM	O=C(OCCCOC1CCCCO1)OCOP(=O)([O-])OC[N+]1(CCCCOc2ccc3ccc(=O)[nH]c3c2)CCN(c2cccc3sccc23)CC1 (stereo not drawn) [EX 140, (4-(benzo[b]thiophen-4-yl)-1-(4-((2-oxo-1,2-dihydroquinolin-7-yl)oxy)butyl)piperazin-1-ium-1-yl)methyl ((((3-((tetrahydro-2H-pyran-2-yl)oxy)propoxy)carbonyl)oxy)methyl) phosphate]					9%

Compound	Concentration of brexpiprazole formed [1]	Concentration of evaluation compound decreased [1]	cytotoxicity (%) Evaluation compound results (HL-60 cells; [3])	cytotoxicity compared with the controls (in words) (HL-60 cells; 300 μmol/L, about 24 hours, HL-60 cells)	cytotoxicity (%) Evaluation compound results (HL-60 cells; 300 μmol/L, about 24 hours, PMA-differentiated HL-60 cells, LDH, no-treatment 0%, cell lysis buffer 100%)	irritation when subcutaneously administered to dogs [2]	cytotoxicity at 24 h, 300 µM (in vitro)
CCOP(=O)([O-])OC[N+]1(CCCCOc2ccc3ccc(=O)[nH]c3c2)CCN(c2cccc3sccc23)CC1 [EX 3, (4-(benzo[b]thiophen-4-yl)-1-(4-((2-oxo-1,2-dihydroquinolin-7-yl)oxy)butyl)piperazin-1-ium-1-yl)methyl ethyl phosphate]	0 nM	10 nM			−7%		
(4-(benzo[b]thiophen-4-yl)-1-(4-((2-oxo-1,2-dihydroquinolin-7-yl)oxy)butyl)piperazin-1-ium-1-yl)methyl(2-(2-butoxyethoxy)ethyl) phosphate [EX 99]	0 nM	0 nM	−6%				
CCC(CC)COC(=O)[C@@H](C)OP(=O)([O-])OC[N+]1(CCCCOc2ccc3ccc(=O)[nH]c3c2)CCN(c2cccc3sccc23)CC1 [EX 108, (R)-(4-(benzo[b]thiophen-4-yl)-1-(4-((2-oxo-1,2-dihydroquinolin-7-yl)oxy)butyl)piperazin-1-ium-1-yl)methyl (1-(2-ethylbutoxy)-1-oxopropan-2-yl) phosphate]	0 nM	80 nM					-7%

Source: patent publication US20260285888A1, “HETEROCYCLIC COMPOUND AND USE THEREOF” (OTSUKA PHARMACEUTICAL CO., LTD., priority 2023, published 2026)
